Tests used:
Caco-2 cell monolayers = test: Efflux-inhibited permeability across Caco-2 cell monolayers; assay type: in vitro ADME
DNA gyrase B = test system: DNA gyrase B; design: method as in earlier work; details: Table S4, ref Brvar, M., et al., Bioorg. Med. Chem. Lett. 2010, 20, 3, 958–962 & Boehm, H. J., J. Med. Chem. 2000, 43, 14, 2664-2674; cited from earlier work
DAUDI cell line = test system: DAUDI cell line; design: method as in Cribiu, R., et al., Angew. Chem. Int. Ed. 2009, 48, 8780–8783; details: Table S4; ref Cribiu, R., et al., Angew. Chem. Int. Ed. 2009, 48, 8780–8783; cited from earlier work
HL-60 cell line = test system: HL-60 cell line; design: method as in Cribiu, R., et al., Angew. Chem. Int. Ed. 2009, 48, 8780–8783; details: Table S4; ref Cribiu, R., et al., Angew. Chem. Int. Ed. 2009, 48, 8780–8783; cited from earlier work
[1] = test system: Trichophyton mentagrophytes 833; design: method as in Tamai, S., et al., J. Antibiot., 1982, 35, 1130-1136; details: Table S4; ref Tamai, S., et al., J. Antibiot., 1982, 35, 1130-1136; cited from earlier work
[2] = test system: Trichophyton asteroides 429; design: method as in Tamai, S., et al., J. Antibiot., 1982, 35, 1130-1136; details: Table S4; ref Tamai, S., et al., J. Antibiot., 1982, 35, 1130-1136; cited from earlier work

For `CC(=O)N1CCC[C@H]1C(=O)N[C@@H]1COC(=O)c2ccccc2CSC[C@H](C(=O)N(C)C)NC1=O` [Compound 14, (4S,7R)-7-((S)-1-Acetylpyrrolidine-2-carboxamido)-N,N-dimethyl-6,10-dioxo-1,3,4,5,6,7,8,10-octahydrobenzo[j][1]oxa[8]thia[5]azacyclododecine-4-carboxamide], the “permeability across Caco-2 cell monolayers (in words)” value (Caco-2 cell monolayers) was “low-to-moderate”.

For `Cc1c(O)cc(O)c2c1C(=O)OCC(NC(=O)C1C(O)CCN1C(=O)C(N)CO)C(=O)NC(C(=O)NC(C)C(=O)O)CSC2` (stereo not drawn) [Cyclothialidine], the “DNA gyrase B ATPase activity” value (DNA gyrase B) is given as “Inhibition”.

In the case of `CC=CCC=CC(C)CC(O)C1CC2OC2C=CC(O)C(O)C=CCC(C)CC(=O)O1` (stereo not drawn) [Iriomoteolide 3a], the “Antiproliferative activity vs DAUDI cell line” value (DAUDI cell line) is listed as “Antiproliferative activity” and the “Antiproliferative activity vs HL-60 cell line” value (HL-60 cell line) is listed as “Antiproliferative activity”.

In the case of `Oc1ccc2cc1Oc1ccc(cc1)CC1CNC(CN1)C2` (stereo not drawn) [Piperazinomycin], the “Inhibition of Trichophyton mentagrophytes 833” value [1] is given as “Inhibition” and the “Inhibition of Trichophyton asteroides 429” value [2] is given as “Inhibition”.
